Source: US20230093099A1, “COMPOUNDS AND METHODS OF TREATING CANCERS” (CULLGEN (SHANGHAI), INC., priority 2019, published 2023)

tested on: RS4;11 cells; experiment: Cell viability assay (CellTiter-Glo) in RS4;11 cells; assay type: cell-based; conditions: Homo sapiens, 72 h; RS4;11 ALL cells treated for three days; read-out: cell viability inhibition IC50
In short: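 Three-day compound treatment of RS4;11 ALL cells (5000/well, 3-fold dilution series of 8 or 12 points), with IC50 from a nonlinear least-squares fit to CellTiter-Glo viability data.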

| IC50 [nM] | SMILES |
| --- | --- |
| < 100 | Cc1cnc(Nc2ccc(N3CCN(CC(=O)NCCCCCNc4cccc5c4C(=O)N(C4CCC(=O)NC4=O)C5=O)CC3)cc2)nc1Nc1cccc(S(=O)(=O)NC(C)(C)C)c1 (stereo not shown) [JA-093, 2-(4-(4-((4-((3-(N-(tert-butyl)sulfamoyl)phenyl)amino)-5-methylpyrimidin-2-yl)amino)phenyl)piperazin-1-yl)-N-(5-((2-(2,6-dioxopiperidin-3-yl)-1,3-dioxoisoindolin-4-yl)amino)pentyl)acetamide] |
| < 100 | Cc1cnc(Nc2ccc(N3CCN(CC(=O)NCCOCCOCCOCCOCCOCCNc4cccc5c4C(=O)N(C4CCC(=O)NC4=O)C5=O)CC3)cc2)nc1Nc1cccc(S(=O)(=O)NC(C)(C)C)c1 (stereo not shown) [JA-224, 2-(4-(4-((4-((3-(N-(tert-butyl)sulfamoyl)phenyl)amino)-5-methylpyrimidin-2-yl)amino)phenyl)piperazin-1-yl)-N-(17-((2-(2,6-dioxopiperidin-3-yl)-1,3-dioxoisoindolin-4-yl)amino)-3,6,9,12,15-pentaoxaheptadecyl)acetamide] |
| < 100 | Cc1cnc(Nc2ccc(N3CCN(CC(=O)NCCCCCCNc4cccc5c4C(=O)N(C4CCC(=O)NC4=O)C5=O)CC3)cc2)nc1Nc1cccc(S(=O)(=O)NC(C)(C)C)c1 (stereo not shown) [JA-094, 2-(4-(4-((4-((3-(N-(tert-butyl)sulfamoyl)phenyl)amino)-5-methylpyrimidin-2-yl)amino)phenyl)piperazin-1-yl)-N-(6-((2-(2,6-dioxopiperidin-3-yl)-1,3-dioxoisoindolin-4-yl)amino)hexyl)acetamide] |

same assay, conditions: Homo sapiens, 72 h; RS4;11 cells; cell viability, 3 days, CellTiter-Glo; read-out: IC50

| IC50 [nM] | SMILES |
| --- | --- |
| > 10000 | O=C1CCC(N2C(=O)c3cccc(NCCOCCOCCC(=O)N4CCC(n5cc(-c6cnc7cccc(-c8cc(F)c(CN9CCOCC9)c(F)c8)c7n6)cn5)CC4)c3C2=O)C(=O)N1 (stereo not shown) [JA-039, 4-[2-[2-[3-[4-[4-[8-[3,5-Difluoro-4-(morpholinomethyl)phenyl]quinoxalin-2-yl]pyrazol-1-yl]-1-piperidyl]-3-oxo-propoxy]ethoxy]ethylamino]-2-(2,6-dioxo-3-piperidyl)isoindoline-1,3-dione] |
| 128 | O=C(CN1CCC(n2cc(-c3cnc4cccc(-c5cc(F)c(CN6CCOCC6)c(F)c5)c4n3)cn2)CC1)NCCCNc1ccc2c(c1)C(=O)N(C1CCC(=O)NC1=O)C2=O (stereo not shown) [JA-175, 2-(4-(4-(8-(3,5-Difluoro-4-(morpholinomethyl)phenyl)quinoxalin-2-yl)-1H-pyrazol-1-yl)piperidin-1-yl)-N-(3-((2-(2,6-dioxopiperidin-3-yl)-1,3-dioxoisoindolin-5-yl)amino)propyl)acetamide] |
| > 500 | Cn1c(=O)n(C2CCC(=O)NC2=O)c2ccc(NCCCCCCC(=O)N3CCN(c4ccc(Nc5nc6cccc(-c7ccc(S(C)(=O)=O)cc7)n6n5)cc4)CC3)cc21 (stereo not shown) [JA-293, 3-(3-Methyl-5-((7-(4-(4-((5-(4-(methylsulfonyl)phenyl)-[1,2,4]triazolo[1,5-a]pyridin-2-yl)amino)phenyl)piperazin-1-yl)-7-oxoheptyl)amino)-2-oxo-2,3-dihydro-1H-benzo[d]imidazol-1-yl)piperidine-2,6-dione] |
| 73.3 | Cc1cnc(Nc2ccc(N3CCN(CC(=O)NCCCCCNc4cccc5c4C(=O)N(C4CCC(=O)NC4=O)C5=O)CC3)cc2)nc1Nc1cccc(S(=O)(=O)NC(C)(C)C)c1 (stereo not shown) [JA-093, 2-(4-(4-((4-((3-(N-(tert-butyl)sulfamoyl)phenyl)amino)-5-methylpyrimidin-2-yl)amino)phenyl)piperazin-1-yl)-N-(5-((2-(2,6-dioxopiperidin-3-yl)-1,3-dioxoisoindolin-4-yl)amino)pentyl)acetamide] |
| > 10000 | CS(=O)(=O)c1ccc(-c2cccc3nc(Nc4ccc(N5CCN(CC(=O)NCCCCCNc6cccc7c6C(=O)N(C6CCC(=O)NC6=O)C7=O)CC5)cc4)nn23)cc1 (stereo not shown) [JA-113, N-(5-((2-(2,6-Dioxopiperidin-3-yl)-1,3-dioxoisoindolin-4-yl)amino)pentyl)-2-(4-(4-((5-(4-(methylsulfonyl)phenyl)-[1,2,4]triazolo[1,5-a]pyridin-2-yl)amino)phenyl)piperazin-1-yl)acetamide] |
| 105 | Cc1cnc(Nc2ccc(N3CCN(CC(=O)NCCOCCOCCOCCOCCOCCNc4cccc5c4C(=O)N(C4CCC(=O)NC4=O)C5=O)CC3)cc2)nc1Nc1cccc(S(=O)(=O)NC(C)(C)C)c1 (stereo not shown) [JA-224, 2-(4-(4-((4-((3-(N-(tert-butyl)sulfamoyl)phenyl)amino)-5-methylpyrimidin-2-yl)amino)phenyl)piperazin-1-yl)-N-(17-((2-(2,6-dioxopiperidin-3-yl)-1,3-dioxoisoindolin-4-yl)amino)-3,6,9,12,15-pentaoxaheptadecyl)acetamide] |
| > 10000 | O=C(CN1CCC(n2cc(-c3cnc4cccc(-c5cc(F)c(CN6CCOCC6)c(F)c5)c4n3)cn2)CC1)NCCCCCCNc1cccc2c1C(=O)N(C1CCC(=O)NC1=O)C2=O (stereo not shown) [JA-147, 2-(4-(4-(8-(3,5-Difluoro-4-(morpholinomethyl)phenyl)quinoxalin-2-yl)-1H-pyrazol-1-yl)piperidin-1-yl)-N-(6-((2-(2,6-dioxopiperidin-3-yl)-1,3-dioxoisoindolin-4-yl)amino)hexyl)acetamide] |
| > 10000 | Cc1cnc(Nc2ccc(N3CCN(C(=O)CCCCCCCCC(=O)N[C@H](C(=O)N4C[C@H](O)C[C@H]4C(=O)NCc4ccc(-c5scnc5C)cc4)C(C)(C)C)CC3)cc2)nc1Nc1cccc(S(=O)(=O)NC(C)(C)C)c1 [JA-028, (2S,4R)-1-((S)-2-(10-(4-(4-((4-((3-(N-(tert-Butyl)sulfamoyl)phenyl)amino)-5-methylpyrimidin-2-yl)amino)phenyl)piperazin-1-yl)-10-oxodecanamido)-3,3-dimethylbutanoyl)-4-hydroxy-N-(4-(4-methylthiazol-5-yl)benzyl)pyrrolidine-2-carboxamide] |
| 74.4 | Cc1cnc(Nc2ccc(N3CCN(CC(=O)NCCCCCCNc4cccc5c4C(=O)N(C4CCC(=O)NC4=O)C5=O)CC3)cc2)nc1Nc1cccc(S(=O)(=O)NC(C)(C)C)c1 (stereo not shown) [JA-094, 2-(4-(4-((4-((3-(N-(tert-butyl)sulfamoyl)phenyl)amino)-5-methylpyrimidin-2-yl)amino)phenyl)piperazin-1-yl)-N-(6-((2-(2,6-dioxopiperidin-3-yl)-1,3-dioxoisoindolin-4-yl)amino)hexyl)acetamide] |
| 9990 | O=C1CCC(N2C(=O)c3ccc(NCCOCCOCCOCCC(=O)N4CCC(n5cc(-c6cnc7cccc(-c8cc(F)c(CN9CCOCC9)c(F)c8)c7n6)cn5)CC4)cc3C2=O)C(=O)N1 (stereo not shown) [JA-184, 5-((2-(2-(2-(3-(4-(4-(8-(3,5-Difluoro-4-(morpholinomethyl)phenyl)quinoxalin-2-yl)-1H-pyrazol-1-yl)piperidin-1-yl)-3-oxopropoxy)ethoxy)ethoxy)ethyl)amino)-2-(2,6-dioxopiperidin-3-yl)isoindoline-1,3-dione] |
| > 10000 | Cc1cnc(Nc2ccc(N3CCN(C(=O)CCOCCOCCNc4cccc5c4C(=O)N(C4CCC(=O)NC4=O)C5=O)CC3)cc2)nc1Nc1cccc(S(=O)(=O)NC(C)(C)C)c1 (stereo not shown) [JA-018, N-(tert-Butyl)-3-((2-((4-(4-(3-(2-(2-((2-(2,6-dioxopiperidin-3-yl)-1,3-dioxoisoindolin-4-yl)amino)ethoxy)ethoxy)propanoyl)piperazin-1-yl)phenyl)amino)-5-methylpyrimidin-4-yl)amino)benzenesulfonamide] |
| > 10000 | Cc1ncsc1-c1ccc(CNC(=O)[C@@H]2C[C@@H](O)CN2C(=O)[C@@H](NC(=O)COCCOCCOCC(=O)N2CCN(c3ccc(Nc4nc5cccc(-c6ccc(S(C)(=O)=O)cc6)n5n4)cc3)CC2)C(C)(C)C)cc1 [JA-064, (2S,4R)-1-((S)-2-(tert-Butyl)-14-(4-(4-((5-(4-(methylsulfonyl)phenyl)-[1,2,4]triazolo[1,5-a]pyridin-2-yl)amino)phenyl)piperazin-1-yl)-4,14-dioxo-6,9,12-trioxa-3-azatetradecanoyl)-4-hydroxy-N-(4-(4-methylthiazol-5-yl)benzyl)pyrrolidine-2-carboxamide] |
| > 10000 | O=C(CN1CCC(n2cc(-c3cnc4cccc(-c5cc(F)c(CN6CCOCC6)c(F)c5)c4n3)cn2)CC1)NCCCCNc1cccc2c1C(=O)N(C1CCC(=O)NC1=O)C2=O (stereo not shown) [JA-146, 2-(4-(4-(8-(3,5-Difluoro-4-(morpholinomethyl)phenyl)quinoxalin-2-yl)-1H-pyrazol-1-yl)piperidin-1-yl)-N-(4-((2-(2,6-dioxopiperidin-3-yl)-1,3-dioxoisoindolin-4-yl)amino)butyl)acetamide] |
| 247 | CS(=O)(=O)c1ccc(-c2cccc3nc(Nc4ccc(N5CCN(C(=O)CCCCC#Cc6ccc7c(c6)C(=O)N(C6CCC(=O)NC6=O)C7=O)CC5)cc4)nn23)cc1 (stereo not shown) [JA-248, 2-(2,6-Dioxopiperidin-3-yl)-5-(7-(4-(4-((5-(4-(methylsulfonyl)phenyl)-[1,2,4]triazolo[1,5-a]pyridin-2-yl)amino)phenyl)piperazin-1-yl)-7-oxohept-1-yn-1-yl)isoindoline-1,3-dione] |
| > 10000 | Cc1ncsc1-c1ccc(CNC(=O)[C@@H]2C[C@@H](O)CN2C(=O)[C@@H](NC(=O)CCCCCCC(=O)N2CCC(n3cc(-c4cnc5cccc(-c6cc(F)c(CN7CCOCC7)c(F)c6)c5n4)cn3)CC2)C(C)(C)C)cc1 [JA-052, (2S,4R)-1-[1 (2S)-2-[[8-[4-[4-[8-[3,5-Difluoro-4-(morpholinomethyl)phenyl]quinoxalin-2-yl]pyrazol-1-yl]-1-piperidyl]-8-oxo-octanoyl]amino]-3,3-dimethyl-butanoyl]-4-hydroxy-N-[[14-(4-methylthiazol-5-yl)phenyl]methyl]pyrrolidine-2-carboxamide] |
| 4700 | CS(=O)(=O)c1ccc(-c2cccc3nc(Nc4ccc(N5CCN(C(=O)CCNc6cccc7c6C(=O)N(C6CCC(=O)NC6=O)C7=O)CC5)cc4)nn23)cc1 (stereo not shown) [JA-012, 2-(2,6-Dioxo-piperidin-3-yl)-4-[3-(4-{4-[5-(4-methanesulfonyl-phenyl)-[1,2,4]triazolo[1,5-a]pyridin-2-ylamino]-phenyl}-piperazin-1-yl)-3-oxo-propylamino]-isoindole-1,3-dione] |
| > 10000 | Cc1ncsc1-c1ccc(CNC(=O)[C@@H]2C[C@@H](O)CN2C(=O)[C@@H](NC(=O)CCCCCCCCCC(=O)N2CCN(c3ccc(Nc4nc5cccc(-c6ccc(S(C)(=O)=O)cc6)n5n4)cc3)CC2)C(C)(C)C)cc1 [JA-081, 4-Hydroxy-1-{2-[11-(4-{4-[5-(4-methanesulfonyl-phenyl)-[1,2,4]triazolo[1,5-a]pyridin-2-ylamino]-phenyl}-piperazin-1-yl)-11-oxo-undecanoylamino]-3,3-dimethyl-butyryl}-pyrrolidine-2-carboxylic acid 4-(4-methyl-thiazol-5-yl)-benzylamide] |
| > 10000 | Cc1ncsc1-c1ccc(CNC(=O)[C@@H]2C[C@@H](O)CN2C(=O)[C@@H](NC(=O)CCOCCOCCOCCOCCC(=O)N2CCN(c3ccc(Nc4nc5cccc(-c6ccc(S(C)(=O)=O)cc6)n5n4)cc3)CC2)C(C)(C)C)cc1 [JA-063, (2S,4R)-1-((S)-2-(tert-Butyl)-19-(4-(4-((5-(4-(methylsulfonyl)phenyl)-[1,2,4]triazolo[1,5-a]pyridin-2-yl)amino)phenyl)piperazin-1-yl)-4,19-dioxo-7,10,13,16-tetraoxa-3-azanonadecanoyl)-4-hydroxy-N-(4-(4-methylthiazol-5-yl)benzyl)pyrrolidine-2-carboxamide] |
| 158 | Cc1cnc(Nc2ccc(N3CCN(CC(=O)NCCCCCCCCNc4cccc5c4C(=O)N(C4CCC(=O)NC4=O)C5=O)CC3)cc2)nc1Nc1cccc(S(=O)(=O)NC(C)(C)C)c1 (stereo not shown) [JA-096, 2-(4-(4-((4-((3-(N-(tert-Butyl)sulfamoyl)phenyl)amino)-5-methylpyrimidin-2-yl)amino)phenyl)piperazin-1-yl)-N-(8-((2-(2,6-dioxopiperidin-3-yl)-1,3-dioxoisoindolin-4-yl)amino)octyl)acetamide] |
